# Experiments:
# ANA3CA cells = assay: Cell proliferation (Incucyte), ANA3CA; assay type: cell-based; details: Lin28a/Lin28b-positive
# Source text: To further evaluate whether the suppressive effects of Ln268 are specific to Lin28-positive cancer cells, we compared cell growth rates of DuNE (Lin28b-positive line) and Du145 (Lin28b-negative line), both of which are Lin28a-negative. DuNE has the same genomic background with Du145 except for the transduction of the SRRM4 gene. […] Furthermore, Ln268 had no impact on the cell growth of DuNE(KO) cells, in which the Lin28b gene was knocked out by CRISPR (Fig. 5C). […] We also tested several ovarian and endometrial cancer cell lines with different Lin28a and Lin28b expression profiles (Fig. 5E).
# [1] = system: Lin28b protein expression in DuNE cells; assay: Lin28b protein levels by immunoblotting in DuNE cells; assay type: cell-based; details: 20uM, 72 h
# Description: We further tested whether the 13 candidate compounds could penetrate the cell membrane, endure cell-mediated metabolism and excretion, and inhibit Lin28 activities inside cancer cells. […] Since let-7 and Lin28b mutually regulate each other’s expression, increased let-7 expression by Lin28 inhibitors would suppress Lin28b protein levels.
# Fig. 3 Validate CADD predicted compounds by cell-based assays. A, B DuNE cells were treated with Lin28b inhibitors for 72 h. Let-7d RNA levels were measured by real-time qPCR (A) and Lin28b protein levels were measured by immunoblotting (B). […] Cell proliferation rates were measured by Incucyte. D Overlay of 1H-15N HSQC spectra for Lin28b-ZKD (black), Lin28b-ZKD + Ln15 (orange), and Lin28b-ZKD + Ln268 (blue). Ligands were added in a 20:1 molar ratio. Approximately 20 residues are seen to shift (from black to orange/blue), with ca. 5 resonances disappearing for Lin28b-ZKD in the presence of Ln268. E Overlay of the 20 NMR models for 2CQF (gray) and 2LI8 (blue) showing the rearrangement of residues 137–160 in going from Lin28b-ZKD alone to the conformation with RNA present. The conformation of Lin28b-ZKD in the presence of the ligands described herein might resemble that of 2LI8, but with a larger conformational spread. All results are presented as the mean ± SD.
# Total RNA was extracted by TRIZOL reagent (Invitrogen), treated with deoxyribonuclease and reversely transcribed by random hexamers and superscript II (Invitrogen). Real-time qPCR was performed on the ABI PRISM 7900 HT system (Applied Biosystems) using the FastStart Universal SYBR Green Master mix (Roche) following standard protocol as we reported. All real-time qPCR assays were carried out in triplicates from three independent cDNA syntheses. For immunoblotting assays, whole cell lysis was extracted by a buffer containing 50mM of Tris pH8.0, 150mM of NaCl, 1% NP40, 0.5% sodium deoxycholate, 0.1% SDS and proteinase and phosphatase inhibitors (Roche). Protein lysis separated by SDS-PAGE, transferred to polyvinylidene difluoride membrane, and blotted by specific antibodies.
# DuNE cells = assay: Cell cycle analysis by FACS, DuNE cells; assay type: cell-based; details: 0-20 μM, 144 h
# Source text: To further compare the potency of Ln268 with C1632 and Ln15 in suppressing DuNE cell growth, we also measured cell growth rates under […] conditions (Fig. 4E). […] In addition, we used FACS assays to confirm that Ln268-mediated cell growth inhibition was due to its effects on blocking cancer cell cycling from the G1 phase towards the S and M phases (Fig. 4F). […] In summary, we confirmed that Ln268 is a potent Lin28 inhibitor that blocks the CSC phenotype of cancer cells, suppresses formation of 3D colonies, and inhibits cancer cell proliferation.
# Lin28b ZKD = target: T1, Lin28b ZKD (Homo sapiens, UniProt Q6ZN17); assay: Fluorescence polarization (FP) assay, Lin28b ZKD:pre-let-7d interaction; assay type: binding; details: FP / EMSA
# T1 sequence (Q6ZN17 127-166 limits assumed): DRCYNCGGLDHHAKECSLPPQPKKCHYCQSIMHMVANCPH
# Description: We conducted two biochemical assays, FP and EMSA, to validate the predicted compounds. To optimize the FP assays, we performed a series of titrations using: (1) FAM-labeled pre-let-7d RNA probe, (2) Lin28b ZKD protein, and (3) non-labeled pre-let-7 probe as a competitor (Fig. 2A). These assays yielded the optimal concentrations required for the subsequent FP validation assays, namely 10 nM for the pre-let-7d probe and 1 μM for Lin28b ZKD protein. The FP signal from the free probe was set as 0%, while the signal from the probe-ZKD complex in the absence of compounds was set as 100%. C1632 was used as a control Lin28 inhibitor (Fig. 2B). […] Since the docking pocket is almost identical between Lin28a and Lin28b homologs, we repeated the FP assays using Lin28a ZKD (Figure S2).
# The fluorescein amidites (FAM)-tagged pre-Let-7d probe with the sequence of […] was purchased from Integrated DNA Technologies (IDT). The probe at the concentrations ranging from 1 nM to 50 uM was incubated with Lin28B (ZKD) or Lin28 (CSD+ZKD) to a final volume of 30 uL at room temperature for 20 min. To read the fluorescence, a TECAN 500 machine was used. Fluorescence polarization was calculated using the following equation:
# P=(Fparrallel−Fperpendicular)/(Fparrallel+FperpendicularP)
# where P is the fluorescence polarization reading, F parallel is the fluorescence intensity acquired from the parallel excitation plane, and F perpendicular is the fluorescence intensity acquired from the perpendicular direction of the excitation plane. The total fluorescence intensity is estimated using the following equation:
# F=Fparallel+2FperpendicularF.
# All the raw FP signal data from the TECAN 500 FP results were analyzed using Prism 8.0 (GraphPad, San Diego, CA, USA); normalized curves were plotted and IC50 values were estimated. All FP data were repeated three to five times.
# Figure S1. Lin28b ZKD protein was incubated with the indicated compounds at the concentration of 0, 0.1, 0.2, 0.5, 1, 2, 5, 10, 20, 50, 100, and 200uM. FP signals were measured and plotted relative to that from vehicle.
smiles,measurement,setting,value
O=c1[nH]c(Nc2ccc(F)cc2O)cs1 [Ln268],effect on growth of ANA3CA cells,ANA3CA cells,suppressed the growth
same,effect on Lin28b protein expression,[1],suppressed Lin28b protein expression
same,cell cycle effect (FACS),DuNE cells,arrested in G2/M in a dose-dependent manner
same,activity in protein-based assays,Lin28b ZKD,performed less effectively than Ln15

# From PMC11725581, “Developing novel Lin28 inhibitors by computer aided drug design” (Cell Death Discovery, 2025)
